# Test results published in patent publication US20240316047A1, “INHIBITORS OF RNA HELICASE DHX9 AND USES THEREOF” (ACCENT THERAPEUTICS, INC., priority 2022, published 2024).
# Biological target: Human recombinant DHX9 protein (Homo sapiens (Human), UniProt Q08211)
# Test: DHX9 ATPase assay (ADP-Glo)
# Assay type: biochemical
# Details: for IC50: read-out: DHX9 Biochemical Inflection Point
# Chain of Human recombinant DHX9 protein (Q08211 whole entry): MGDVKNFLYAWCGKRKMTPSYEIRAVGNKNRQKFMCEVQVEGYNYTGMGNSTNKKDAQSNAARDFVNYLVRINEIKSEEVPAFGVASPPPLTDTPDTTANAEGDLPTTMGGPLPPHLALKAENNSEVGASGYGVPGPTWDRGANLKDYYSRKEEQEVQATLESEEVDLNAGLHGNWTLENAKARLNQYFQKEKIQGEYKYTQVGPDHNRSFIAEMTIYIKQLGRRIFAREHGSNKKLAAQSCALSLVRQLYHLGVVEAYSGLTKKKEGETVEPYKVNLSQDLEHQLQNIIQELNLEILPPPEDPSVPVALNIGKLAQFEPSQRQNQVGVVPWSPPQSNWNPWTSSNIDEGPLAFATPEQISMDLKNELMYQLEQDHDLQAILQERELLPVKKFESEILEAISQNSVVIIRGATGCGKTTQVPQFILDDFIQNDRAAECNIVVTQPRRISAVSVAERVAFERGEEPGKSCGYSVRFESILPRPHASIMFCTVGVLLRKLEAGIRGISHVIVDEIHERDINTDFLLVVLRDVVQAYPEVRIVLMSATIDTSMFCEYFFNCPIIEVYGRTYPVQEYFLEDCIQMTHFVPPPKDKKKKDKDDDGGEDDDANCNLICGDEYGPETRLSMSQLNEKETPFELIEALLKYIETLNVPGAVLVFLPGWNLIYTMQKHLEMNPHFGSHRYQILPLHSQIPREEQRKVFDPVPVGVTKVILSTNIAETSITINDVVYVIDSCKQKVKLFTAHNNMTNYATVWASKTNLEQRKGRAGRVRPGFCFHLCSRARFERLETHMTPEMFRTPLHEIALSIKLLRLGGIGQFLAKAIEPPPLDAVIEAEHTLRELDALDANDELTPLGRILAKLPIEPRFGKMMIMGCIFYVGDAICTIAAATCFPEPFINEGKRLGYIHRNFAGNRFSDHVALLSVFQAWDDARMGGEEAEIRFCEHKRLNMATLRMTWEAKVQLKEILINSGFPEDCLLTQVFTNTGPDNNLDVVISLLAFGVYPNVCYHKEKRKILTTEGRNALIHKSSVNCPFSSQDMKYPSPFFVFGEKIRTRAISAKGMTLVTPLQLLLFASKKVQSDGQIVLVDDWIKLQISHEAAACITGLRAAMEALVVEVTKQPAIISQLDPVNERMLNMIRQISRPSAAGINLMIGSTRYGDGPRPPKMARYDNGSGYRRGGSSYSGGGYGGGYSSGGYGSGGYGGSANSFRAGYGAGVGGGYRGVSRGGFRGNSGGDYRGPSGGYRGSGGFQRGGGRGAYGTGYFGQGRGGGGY
Compound,DHX9 Biochemical Max Inhibition,IC50 [nM]
CS(=O)(=O)Nc1cc(Cl)cc(NC(=O)c2cnn(-c3ncc(F)cc3OCc3cnco3)c2)c1 [Example 719],69.7,84.7
CS(=O)(=O)Nc1cc(Cl)cc(NC(=O)c2cnn(C3CCCC3OCc3ccccc3)c2)c1 (centres unmarked) [Example 424],81.7,5.1
CS(=O)(=O)Nc1cc(Cl)cc(NC(=O)c2cc(-c3ccc(F)cn3)n(CCO)c2)c1 [Example 689],85,3.6
Cc1cc(C(=O)Nc2cc(Cl)cc(NS(C)(=O)=O)c2)cn1-c1ccc(N2CCCC2=O)cn1 [Example 410],69.3,20.5
CS(=O)(=O)Nc1cc(Br)cc(NC(=O)c2cnn(C3CCCCC3)c2)c1 [Example 48],54.1%,93.1
Cn1cc(C(=O)Nc2cc(Cl)cc(NS(C)(=O)=O)c2)cc1-c1cccc(N2CC(F)(F)C2)n1 [Example 551],87.4,105
COCc1cnc(-c2cc(C(=O)Nc3cc(Cl)cc(NS(C)(=O)=O)c3)cn2C)nc1 [Example 690],75.8,7.3
CS(=O)(=O)Nc1cc(Br)cc(NC(=O)c2cnn(-c3cnccn3)c2)c1 [Example 40],60%,15.7
Cc1cc(C(=O)Nc2cc(Cl)cc(NS(C)(=O)=O)c2)cn1-c1ccc(N2CCCC2)cn1 [Example 270],74.1%,9.7
CCOc1cnc(-c2cc(C(=O)Nc3cc(Cl)cc(NS(C)(=O)=O)c3)cn2C)c(F)c1 [Example 453],90.7,12.2
Cc1sc(C(=O)Nc2cc(Cl)cc(NS(C)(=O)=O)c2)cc1-c1ccc(C2CN(CC(F)(F)F)C2)cn1 [Example 710],69,14.5
Cc1cccc(OCc2cccc(F)c2)c1-n1cc(C(=O)Nc2cc(Cl)cc(NS(C)(=O)=O)c2)cn1 [Example 255],75.8%,72.4
Cn1cc(C(=O)Nc2cc(Cl)cc(NS(C)(=O)=O)c2)cc1-c1ncc(N2CC[Si](C)(C)CC2)cc1F [Example 470],93.8,125
COc1ccc(F)c(-c2cc(C(=O)Nc3cc(Cl)cc(NS(C)(=O)=O)c3)cn2C)n1 [Example 703],53.6,44.4
CS(=O)(=O)Nc1cc(Cl)cc(NC(=O)c2cnn(-c3ccccc3Oc3ncccn3)c2)c1 [Example 263],63.8%,170
Cn1cc(C(=O)Nc2cc(Cl)cc(NS(C)(=O)=O)c2)cc1-c1ncc(N2CC(F)C2)cn1 [Example 598],72.1,16.4
Cc1sc(C(=O)Nc2cc(Cl)cc(NS(C)(=O)=O)c2)cc1-c1ncc(OC2CN(C)C2)cc1F [Example 635],68.5,2
Cn1cc(C(=O)Nc2cc(Cl)cc(NS(C)(=O)=O)c2)cc1-c1cc(N2CC(F)(F)C2)ccn1 [Example 552],89.7,16.6
CNC(=O)c1sc(C(=O)Nc2cc(Cl)cc(NS(C)(=O)=O)c2)cc1-c1ncccc1OCc1ccccc1 [Example 212],72.6%,5.2
CC(C)(C)OC(=O)N1CC(n2cc(C(=O)Nc3cc(Cl)cc(NS(C)(=O)=O)c3)cc2-c2ncc(F)cn2)C1 [Example 645],70.8,366

Compound,DHX9 Biochemical Max Inhibition,IC50 [nM]
CS(=O)(=O)Nc1cc(Cl)cc(NC(=O)c2cc(-n3cc(F)cn3)cs2)c1 [Example 440],68.5,37.6
Cn1cc(C(=O)Nc2cc(Cl)cc(NS(C)(=O)=O)c2)cc1-c1ccc(N2CCN(C(=O)C3CCC3)CC2)cn1 [Example 593],99.9,30
Cc1sc(C(=O)Nc2cc(Cl)cc(NS(C)(=O)=O)c2)cc1-c1ncc(OC(C)(C)CO)cn1 [Example 678],71.3,5.7
Cc1sc(C(=O)Nc2cc(Cl)cc(NS(C)(=O)=O)c2)cc1-c1ncc(N2CCC3(CC2)CC3)cc1F [Example 467],99.3,155
Cc1cc(C(=O)Nc2cc(Cl)cc(NS(C)(=O)=O)c2)cn1-c1ncc(N2CC(F)(F)C2)cc1C#N [Example 415],99.9,15.4
CC(=O)N1CC2(CC(n3cc(C(=O)Nc4cc(Cl)cc(NS(C)(=O)=O)c4)cn3)C2)C1 [Example 313],63.6%,147
COc1cnc(-c2cc(C(=O)Nc3cc(Cl)cc(NS(C)(=O)=O)c3)cn2CC(F)(F)F)nc1 [Example 563],66.9,71.3
CS(=O)(=O)Nc1cc(Br)cc(NC(=O)c2cc(-c3cnccn3)cs2)c1 [Example 18],61%,8.6
CS(=O)(=O)Nc1cc(Br)cc(NC(=O)c2cnn(-c3cc(C#N)ccn3)c2)c1 [Example 38],44.7%,65.5
Cn1cc(C(=O)Nc2cc(Cl)cc(NS(C)(=O)=O)c2)cc1-c1c(F)cc(F)c[n+]1[O-] [Example 567],77,58.4
"CS(=O)(=O)Nc1cc(Br)cc(NC(=O)c2cnn(-c3ccccn3)c2)c1 [Example 36, N-(3-bromo-5-(methylsulfonamido)phenyl)-1-(pyridin-2-yl)-1H-pyrazole-4-carboxamide]",56.86%,28
Cn1cc(C(=O)Nc2cc(Cl)cc(NS(C)(=O)=O)c2)cc1-c1ccc(C2CCN(CC(F)(F)F)CC2)cn1 [Example 619],81.3,178
Cc1sc(C(=O)Nc2cc(Cl)cc(NS(C)(=O)=O)c2)cc1-c1ncc(N2CC(F)(F)C2)cc1OC1CCC1 [Example 514],73.8,73.3
Cc1cc(C(=O)Nc2cc(Cl)cc(NS(C)(=O)=O)c2)cn1-c1ccc(F)cn1 [Example 390],80.4%,1.5
Cn1cc(C(=O)Nc2cc(Cl)cc(NS(C)(=O)=O)c2)cc1-c1ncc(F)cc1Cl [Example 544],66.5,59
COCCOc1ccc(-n2cc(C(=O)Nc3cc(Cl)cc(NS(C)(=O)=O)c3)cc2C)nc1 [Example 442],72.7,9.3
Cc1cn2cc(C(=O)Nc3cc(Cl)cc(NS(C)(=O)=O)c3)cc2c(C)n1 [Example 322],65.6%,215
COC(=O)[C@@H]1CCCN1c1csc(C(=O)Nc2cc(Cl)cc(NS(C)(=O)=O)c2)c1 [Example 242],69.7%,105
CS(=O)(=O)Nc1cc(Cl)cc(NC(=O)c2cc(-c3ncc(C(F)(F)F)cc3F)cs2)c1 [Example 371],65.3%,140
CS(=O)(=O)Nc1cc(Br)cc(NC(=O)c2cnn(-c3ccc(N4CCOCC4)cn3)c2)c1 [Example 55],48.6%,9.9
